Among the data in patent US10344060B2 (priority 2013, dated 2019) are IC50 and Nav1.4/Nav1.7 values, retold here.

One assay addresses hNav1.4 (Homo sapiens, UniProt P35499). Kind of assay: cell-based. The class given is cell-based. To be noted: for pIC50: PatchXpress, read-out: PX hNav1.4 Tonic IC50; for Nav1.4/Nav1.7: ratio of PX tonic IC50 values.
The next assay concerns the target hNav1.7 (Homo sapiens, UniProt Q15858). Kind of assay: cell-based. In kind it is cell-based. Conditions: for pIC50: PatchXpress, read-out: PX hNav1.7 Tonic IC50; for Nav1.4/Nav1.7: ratio of PX tonic IC50 values.

What is called pIC50 is −log10 of the IC50, conventionally taken in molar units.

pIC50: −log10 of the molar value. Where two headings read alike, the source gives them in different places.

Sequence of hNav1.7 (Q15858 whole entry): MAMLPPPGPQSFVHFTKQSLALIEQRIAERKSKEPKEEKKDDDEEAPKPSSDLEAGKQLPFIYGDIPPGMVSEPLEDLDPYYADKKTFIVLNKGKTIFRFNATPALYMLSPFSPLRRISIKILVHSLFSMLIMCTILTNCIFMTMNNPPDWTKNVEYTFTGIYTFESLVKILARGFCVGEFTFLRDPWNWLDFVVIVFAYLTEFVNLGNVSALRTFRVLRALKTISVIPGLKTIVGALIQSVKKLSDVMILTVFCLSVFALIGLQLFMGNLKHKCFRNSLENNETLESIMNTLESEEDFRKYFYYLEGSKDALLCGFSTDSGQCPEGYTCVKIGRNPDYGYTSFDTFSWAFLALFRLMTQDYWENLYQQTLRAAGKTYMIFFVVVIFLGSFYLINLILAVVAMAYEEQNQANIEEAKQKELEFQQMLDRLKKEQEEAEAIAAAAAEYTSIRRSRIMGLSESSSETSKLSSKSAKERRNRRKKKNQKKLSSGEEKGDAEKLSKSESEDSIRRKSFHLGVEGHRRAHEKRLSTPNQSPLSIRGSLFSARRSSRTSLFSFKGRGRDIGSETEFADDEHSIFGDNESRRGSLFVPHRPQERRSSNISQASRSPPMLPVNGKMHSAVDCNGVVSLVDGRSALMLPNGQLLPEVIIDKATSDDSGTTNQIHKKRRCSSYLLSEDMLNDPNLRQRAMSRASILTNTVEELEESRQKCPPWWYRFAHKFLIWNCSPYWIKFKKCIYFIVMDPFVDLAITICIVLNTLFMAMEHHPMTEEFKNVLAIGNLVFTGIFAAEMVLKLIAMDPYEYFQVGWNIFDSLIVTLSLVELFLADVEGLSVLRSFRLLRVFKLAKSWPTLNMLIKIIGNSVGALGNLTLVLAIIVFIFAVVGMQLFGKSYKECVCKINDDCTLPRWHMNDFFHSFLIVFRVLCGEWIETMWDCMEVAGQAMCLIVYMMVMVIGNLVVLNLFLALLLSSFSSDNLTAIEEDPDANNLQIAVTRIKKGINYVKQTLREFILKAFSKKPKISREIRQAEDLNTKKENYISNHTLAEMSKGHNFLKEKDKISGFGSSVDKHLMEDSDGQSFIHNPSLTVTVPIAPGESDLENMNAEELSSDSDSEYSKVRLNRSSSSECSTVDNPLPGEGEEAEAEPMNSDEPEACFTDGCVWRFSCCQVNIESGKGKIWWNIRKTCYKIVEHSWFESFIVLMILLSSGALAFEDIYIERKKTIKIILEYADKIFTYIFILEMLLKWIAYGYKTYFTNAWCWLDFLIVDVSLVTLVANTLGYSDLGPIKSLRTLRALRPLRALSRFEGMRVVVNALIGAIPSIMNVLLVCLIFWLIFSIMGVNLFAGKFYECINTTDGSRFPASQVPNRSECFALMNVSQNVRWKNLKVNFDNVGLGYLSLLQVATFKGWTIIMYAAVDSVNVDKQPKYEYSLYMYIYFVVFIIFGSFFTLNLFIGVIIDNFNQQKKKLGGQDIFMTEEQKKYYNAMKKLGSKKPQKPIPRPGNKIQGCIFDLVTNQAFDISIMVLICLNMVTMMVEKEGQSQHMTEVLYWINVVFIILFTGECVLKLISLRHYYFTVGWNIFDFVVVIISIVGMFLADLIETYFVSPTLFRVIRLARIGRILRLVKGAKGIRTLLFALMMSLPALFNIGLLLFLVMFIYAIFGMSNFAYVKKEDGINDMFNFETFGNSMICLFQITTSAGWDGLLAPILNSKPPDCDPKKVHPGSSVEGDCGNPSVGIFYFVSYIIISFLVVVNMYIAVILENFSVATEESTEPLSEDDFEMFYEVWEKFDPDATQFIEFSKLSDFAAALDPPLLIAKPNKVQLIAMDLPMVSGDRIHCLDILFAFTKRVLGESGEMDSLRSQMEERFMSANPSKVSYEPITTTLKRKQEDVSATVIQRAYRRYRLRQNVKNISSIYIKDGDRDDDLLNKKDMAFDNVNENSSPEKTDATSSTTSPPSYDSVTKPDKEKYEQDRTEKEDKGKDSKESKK
Sequence of hNav1.4 (P35499 whole entry): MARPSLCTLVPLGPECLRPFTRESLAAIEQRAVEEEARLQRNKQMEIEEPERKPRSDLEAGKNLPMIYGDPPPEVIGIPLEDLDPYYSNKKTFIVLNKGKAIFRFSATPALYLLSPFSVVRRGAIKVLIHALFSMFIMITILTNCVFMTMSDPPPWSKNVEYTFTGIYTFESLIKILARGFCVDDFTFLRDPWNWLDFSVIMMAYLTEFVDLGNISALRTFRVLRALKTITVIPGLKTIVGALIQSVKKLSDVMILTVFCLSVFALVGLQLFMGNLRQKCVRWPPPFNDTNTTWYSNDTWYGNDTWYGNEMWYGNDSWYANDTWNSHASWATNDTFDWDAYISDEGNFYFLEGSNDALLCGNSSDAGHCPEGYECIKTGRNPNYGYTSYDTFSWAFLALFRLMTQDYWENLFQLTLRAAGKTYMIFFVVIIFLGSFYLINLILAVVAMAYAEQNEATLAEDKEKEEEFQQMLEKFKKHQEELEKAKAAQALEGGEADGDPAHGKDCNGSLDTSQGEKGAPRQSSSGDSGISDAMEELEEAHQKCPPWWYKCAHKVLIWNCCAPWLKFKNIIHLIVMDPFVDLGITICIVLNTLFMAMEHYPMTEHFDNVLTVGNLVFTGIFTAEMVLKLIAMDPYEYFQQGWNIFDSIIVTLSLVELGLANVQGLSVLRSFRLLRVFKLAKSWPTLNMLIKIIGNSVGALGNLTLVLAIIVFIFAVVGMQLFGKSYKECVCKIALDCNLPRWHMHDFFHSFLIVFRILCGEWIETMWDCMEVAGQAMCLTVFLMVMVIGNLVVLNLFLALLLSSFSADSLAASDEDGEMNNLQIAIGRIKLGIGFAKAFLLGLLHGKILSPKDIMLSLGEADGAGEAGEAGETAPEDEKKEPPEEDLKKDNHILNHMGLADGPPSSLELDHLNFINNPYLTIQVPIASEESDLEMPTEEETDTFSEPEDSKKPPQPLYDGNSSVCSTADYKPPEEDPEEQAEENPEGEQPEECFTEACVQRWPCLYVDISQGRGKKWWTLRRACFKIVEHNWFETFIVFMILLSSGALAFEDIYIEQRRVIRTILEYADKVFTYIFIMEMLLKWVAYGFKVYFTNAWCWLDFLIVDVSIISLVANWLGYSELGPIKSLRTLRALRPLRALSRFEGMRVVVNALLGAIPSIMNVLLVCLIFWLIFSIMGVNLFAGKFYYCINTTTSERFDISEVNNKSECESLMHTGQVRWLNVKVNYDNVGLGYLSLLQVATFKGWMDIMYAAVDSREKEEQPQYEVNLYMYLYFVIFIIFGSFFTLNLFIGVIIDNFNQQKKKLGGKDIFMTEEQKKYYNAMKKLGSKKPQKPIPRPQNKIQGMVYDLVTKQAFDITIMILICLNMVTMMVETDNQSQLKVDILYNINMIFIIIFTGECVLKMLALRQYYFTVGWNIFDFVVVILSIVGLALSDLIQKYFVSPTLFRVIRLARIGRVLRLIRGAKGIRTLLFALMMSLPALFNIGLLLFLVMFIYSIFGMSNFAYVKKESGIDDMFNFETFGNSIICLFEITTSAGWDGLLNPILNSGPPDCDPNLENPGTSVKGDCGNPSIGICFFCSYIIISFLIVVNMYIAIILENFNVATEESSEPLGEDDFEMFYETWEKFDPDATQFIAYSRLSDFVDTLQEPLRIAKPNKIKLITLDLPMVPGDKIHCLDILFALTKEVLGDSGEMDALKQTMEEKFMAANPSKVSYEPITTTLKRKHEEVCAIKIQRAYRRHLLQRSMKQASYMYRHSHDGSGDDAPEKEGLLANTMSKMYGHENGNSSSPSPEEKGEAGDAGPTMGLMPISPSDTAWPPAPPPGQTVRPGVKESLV

As for `CC[C@H](C)[C@H](NC(=O)[C@@H](NC(=O)[C@H](CCCCN)NC(=O)[C@H](CCCNC(=N)N)NC(=O)[C@@H]1CSSC[C@@H]2NC(=O)[C@H](C)NC(=O)[C@H](CCCNC(=N)N)NC(=O)[C@H](CCC(=O)O)NC(=O)[C@H](CO)NC(=O)[C@H](CC(=O)O)NC(=O)[C@@H]3CSSC[C@H](NC(=O)[C@H](CCCNC(=N)N)NC(=O)[C@H](CC(C)C)NC(=O)CNC(=O)[C@H](CCC(=O)O)NC(=O)[C@H](CSSC[C@H](NC(=O)[C@@H](N)Cc4ccc(O)cc4)C(=O)N[C@@H](CCC(N)=O)C(=O)N[C@@H](CCCCN)C(=O)N[C@@H](Cc4c[nH]c5ccccc45)C(=O)N[C@@H](CCSC)C(=O)N[C@@H](Cc4c[nH]c5ccccc45)C(=O)N[C@@H]([C@@H](C)O)C(=O)N3)NC2=O)C(=O)N[C@@H](CCCCN)C(=O)N[C@@H](CC(C)C)C(=O)N[C@@H](Cc2c[nH]c3ccccc23)C(=O)N1)[C@@H](C)CC)C(N)=O` [compound 58], the negative logarithm of the IC50 (pIC50) at hNav1.4 (tonic, Table 11) is 7.36; at hNav1.7 (tonic, Table 11) it was 9.04. The Nav1.4/Nav1.7 on hNav1.7 (Table 11) amounted to 48.
The matching figures for `CC[C@H](C)[C@H](NC(=O)[C@@H](NC(=O)[C@H](CCCCN)NC(=O)[C@H](CCCNC(=N)N)NC(=O)[C@@H]1CSSC[C@@H]2NC(=O)[C@H](C)NC(=O)[C@H](CCCNC(=N)N)NC(=O)[C@H](CCCCN)NC(=O)[C@H](CO)NC(=O)[C@H](CC(=O)O)NC(=O)[C@@H]3CSSC[C@H](NC(=O)[C@H](CCCNC(=N)N)NC(=O)[C@H](CC(C)C)NC(=O)CNC(=O)[C@H](CCC(=O)O)NC(=O)[C@H](CSSC[C@H](NC(=O)[C@@H](N)Cc4ccc(O)cc4)C(=O)N[C@@H](CCC(N)=O)C(=O)N[C@@H](CCCCN)C(=O)N[C@@H](Cc4c[nH]c5ccccc45)C(=O)N[C@@H](CCSC)C(=O)N[C@@H](Cc4c[nH]c5ccccc45)C(=O)N[C@@H]([C@@H](C)O)C(=O)N3)NC2=O)C(=O)N[C@@H](CCC(=O)O)C(=O)N[C@@H](CC(C)C)C(=O)N[C@@H](Cc2c[nH]c3ccccc23)C(=O)N1)[C@@H](C)CC)C(N)=O` [compound 64]: 5.36, 6.03 and 5.
For the compound `CC[C@H](C)[C@H](NC(=O)[C@@H](NC(=O)[C@H](CCC(=O)O)NC(=O)[C@H](CCCNC(=N)N)NC(=O)[C@@H]1CSSC[C@@H]2NC(=O)[C@H](C)NC(=O)[C@H](CCCNC(=N)N)NC(=O)[C@H](CCCCN)NC(=O)[C@H](CO)NC(=O)[C@H](CC(=O)O)NC(=O)[C@@H]3CSSC[C@H](NC(=O)[C@H](CCCNC(=N)N)NC(=O)[C@H](CC(C)C)NC(=O)CNC(=O)[C@H](CCC(=O)O)NC(=O)[C@H](CSSC[C@H](NC(=O)[C@@H](N)Cc4ccc(O)cc4)C(=O)N[C@@H](CCC(N)=O)C(=O)N[C@@H](CCCCN)C(=O)N[C@@H](Cc4c[nH]c5ccccc45)C(=O)N[C@@H](CCSC)C(=O)N[C@@H](Cc4c[nH]c5ccccc45)C(=O)N[C@@H]([C@@H](C)O)C(=O)N3)NC2=O)C(=O)N[C@@H](CCCCN)C(=O)N[C@@H](CC(C)C)C(=O)N[C@@H](Cc2c[nH]c3ccccc23)C(=O)N1)[C@@H](C)CC)C(N)=O` [compound 68], the negative-log IC50 (pIC50) at hNav1.4 (tonic, Table 11) was 6.49; on hNav1.7 (tonic, Table 11), 7.91. Further, on hNav1.7 (Table 11), the Nav1.4/Nav1.7 was 26.
Regarding `C#CC[C@@H]1NC(=O)[C@@H]2CSSC[C@H](NC(=O)[C@H](Cc3ccc(O)cc3)NC(=O)[C@@H](N)CC#N)C(=O)N[C@@H](CCC(N)=O)C(=O)N[C@@H](CCCCN)C(=O)N[C@@H](Cc3c[nH]c4ccccc34)C(=O)N[C@@H](CCCC)C(=O)N[C@@H](Cc3c[nH]c4ccccc34)C(=O)N[C@@H]([C@@H](C)O)C(=O)N[C@H]3CSSC[C@H](NC(=O)[C@H](CCC(=O)O)NC(=O)[C@H](CC(C)C)NC(=O)CNC1=O)C(=O)N[C@@H](CCCCN)C(=O)N[C@@H](CC(C)C)C(=O)N[C@@H](Cc1c[nH]c4ccccc14)C(=O)N[C@H](C(=O)N[C@@H](CCCNC(=N)N)C(=O)N[C@@H](CCCCN)C(=O)N[C@H](C(=O)N[C@H](C(N)=O)[C@@H](C)CC)[C@@H](C)CC)CSSC[C@H](NC(=O)[C@H](C)NC(=O)[C@H](CCCNC(=N)N)NC(=O)[C@H](CCCCN)NC(=O)[C@H](CO)NC(=O)[C@H](CC(=O)O)NC3=O)C(=O)N2` [compound 396], the pIC50 at hNav1.4 (Table 12, tonic block) is 6.56; on hNav1.7 (Table 12, tonic block), 8.55. Besides, the Nav1.4/Nav1.7 on hNav1.4 (Table 12) is 98.
In the case of `C#CC[C@H](N)C(=O)NCCCC[C@@H]1NC(=O)[C@H](CCCNC(=N)N)NC(=O)[C@H](CCCCN)NC(=O)[C@H](CO)NC(=O)[C@H](CC(=O)O)NC(=O)[C@@H]2CSSC[C@@H]3NC(=O)[C@H](CCCNC(=N)N)NC(=O)[C@H](CC(C)C)NC(=O)CNC(=O)[C@H](CCC(=O)O)NC(=O)[C@H](CSSC[C@H](NC(=O)[C@H](Cc4ccc(O)cc4)NC(=O)[C@@H](N)CCC)C(=O)N[C@@H](CCC(N)=O)C(=O)N[C@@H](CCCCN)C(=O)N[C@@H](Cc4c[nH]c5ccccc45)C(=O)N[C@@H](CCCC)C(=O)N[C@@H](Cc4c[nH]c5ccccc45)C(=O)N[C@@H]([C@@H](C)O)C(=O)N2)NC(=O)[C@H](CSSC[C@@H](C(=O)N[C@@H](CCCNC(=N)N)C(=O)N[C@@H](CCCCN)C(=O)N[C@H](C(=O)N[C@H](C(N)=O)[C@@H](C)CC)[C@@H](C)CC)NC(=O)[C@H](Cc2c[nH]c4ccccc24)NC(=O)[C@H](CC(C)C)NC(=O)[C@H](CCCCN)NC3=O)NC1=O` [compound 431], the Nav1.4/Nav1.7 on hNav1.4 (Table 12) worked out at 13. Further, at hNav1.7 (Table 12, tonic block), the negative logarithm of the IC50 (pIC50) was 8.79.
`C#CC[C@H](N)C(=O)N[C@@H](Cc1ccc(O)cc1)C(=O)N[C@H]1CSSC[C@@H]2NC(=O)[C@@H]3CSSC[C@@H](C(=O)N[C@@H](CCCNC(=N)N)C(=O)N[C@@H](CCCCN)C(=O)N[C@@H](CCC(=O)O)C(=O)N[C@@H](Cc4c[nH]c5ccccc45)C(N)=O)NC(=O)[C@H](Cc4c[nH]c5ccccc45)NC(=O)[C@H](CC(C)C)NC(=O)[C@H](CCCCN)NC(=O)[C@H](CSSC[C@H](NC(=O)[C@H]([C@@H](C)O)NC(=O)[C@H](Cc4c[nH]c5ccccc45)NC(=O)[C@H](CCCC)NC(=O)[C@H](Cc4c[nH]c5ccccc45)NC(=O)[C@H](CCCCN)NC(=O)[C@H](CCC(N)=O)NC1=O)C(=O)N[C@@H](CC(=O)O)C(=O)N[C@@H](CO)C(=O)N[C@@H](CCCCN)C(=O)N[C@@H](CCCNC(=N)N)C(=O)N[C@@H](C)C(=O)N3)NC(=O)[C@H](CCCNC(=N)N)NC(=O)[C@H](CC(C)C)NC(=O)CNC(=O)[C@H](CCC(=O)O)NC2=O` [compound 450]: the pIC50 was 7.44 on hNav1.4 (Table 12, tonic block) and 9.11 on hNav1.7 (Table 12, tonic block). Besides, the Nav1.4/Nav1.7 on hNav1.4 (Table 12) is given as 47.
Turning to `C#CC[C@@H]1NC(=O)[C@@H]2CSSC[C@H](NC(=O)[C@H](Cc3ccc(O)cc3)NC(=O)[C@@H](N)CC#N)C(=O)N[C@@H](CCC(N)=O)C(=O)N[C@@H](CCCCN)C(=O)N[C@@H](Cc3c[nH]c4ccccc34)C(=O)N[C@@H](CCCC)C(=O)N[C@@H](Cc3c[nH]c4ccccc34)C(=O)N[C@@H]([C@@H](C)O)C(=O)N[C@H]3CSSC[C@H](NC(=O)[C@H](CCCNC(=N)N)NC(=O)[C@H](CC(C)C)NC(=O)CNC1=O)C(=O)N[C@@H](CCCCN)C(=O)N[C@@H](CC(C)C)C(=O)N[C@@H](Cc1c[nH]c4ccccc14)C(=O)N[C@H](C(=O)N[C@@H](CCCNC(=N)N)C(=O)N[C@@H](CCCCN)C(=O)N[C@@H](CCC(=O)O)C(=O)N[C@@H](Cc1c[nH]c4ccccc14)C(N)=O)CSSC[C@H](NC(=O)[C@H](C)NC(=O)[C@H](CCCNC(=N)N)NC(=O)[C@H](CCCCN)NC(=O)[C@H](CO)NC(=O)[C@H](CC(=O)O)NC3=O)C(=O)N2` [compound 452], the pIC50 was 7.19 on hNav1.4 (Table 12, tonic block) and 8.60 on hNav1.7 (Table 12, tonic block). For the same compound, the Nav1.4/Nav1.7 at hNav1.4 (Table 12) worked out at 26.
Take `C#CC[C@@H]1NC(=O)[C@H](CC(=O)O)NC(=O)[C@@H]2CSSC[C@@H]3NC(=O)[C@H](CCCNC(=N)N)NC(=O)[C@H](CC(C)C)NC(=O)CNC(=O)[C@H](CCC(=O)O)NC(=O)[C@H](CSSC[C@H](NC(=O)[C@H](Cc4ccc(O)cc4)NC(=O)[C@@H](N)CC#N)C(=O)N[C@@H](CCC(N)=O)C(=O)N[C@@H](CCCCN)C(=O)N[C@@H](Cc4c[nH]c5ccccc45)C(=O)N[C@@H](CCCC)C(=O)N[C@@H](Cc4c[nH]c5ccccc45)C(=O)N[C@@H]([C@@H](C)O)C(=O)N2)NC(=O)[C@H](CSSC[C@@H](C(=O)N[C@@H](CCCNC(=N)N)C(=O)N[C@@H](CCCCN)C(=O)N[C@@H](CCC(=O)O)C(=O)N[C@H](C(N)=O)[C@@H](C)CC)NC(=O)[C@H](Cc2c[nH]c4ccccc24)NC(=O)[C@H](CC(C)C)NC(=O)[C@H](CCCCN)NC3=O)NC(=O)[C@H](C)NC(=O)[C@H](CCCNC(=N)N)NC(=O)[C@H](CCCCN)NC1=O` [compound 520]: the pIC50 is 6.29 on hNav1.4 (Table 12, tonic block) and 9.71 at hNav1.7 (Table 12, tonic block). For the same compound, the Nav1.4/Nav1.7 on hNav1.4 (Table 12) amounted to 2673.
For `C#CC[C@@H]1NC(=O)[C@H](CO)NC(=O)[C@H](CC(=O)O)NC(=O)[C@@H]2CSSC[C@@H]3NC(=O)[C@H](CCCNC(=N)N)NC(=O)[C@H](CC(C)C)NC(=O)CNC(=O)[C@H](CCC(=O)O)NC(=O)[C@H](CSSC[C@H](NC(=O)[C@H](Cc4ccc(O)cc4)NC(=O)[C@@H](N)CC#N)C(=O)N[C@@H](CCC(N)=O)C(=O)N[C@@H](CCCCN)C(=O)N[C@@H](Cc4c[nH]c5ccccc45)C(=O)N[C@@H](CCCC)C(=O)N[C@@H](Cc4c[nH]c5ccccc45)C(=O)N[C@@H]([C@@H](C)O)C(=O)N2)NC(=O)[C@H](CSSC[C@@H](C(=O)N[C@@H](CCCNC(=N)N)C(=O)N[C@@H](CCCCN)C(=O)N[C@@H](CCC(=O)O)C(=O)N[C@H](C(N)=O)[C@@H](C)CC)NC(=O)[C@H](Cc2c[nH]c4ccccc24)NC(=O)[C@H](CC(C)C)NC(=O)[C@H](CCCCN)NC3=O)NC(=O)[C@H](C)NC(=O)[C@H](CCCNC(=N)N)NC1=O` [compound 521], the pIC50 on hNav1.4 (Table 12, tonic block) was 7.04; on hNav1.7 (Table 12, tonic block), 8.83. Besides, the Nav1.4/Nav1.7 at hNav1.4 (Table 12) worked out at 62.
